# Data: patent publication US10183059B2, “Method for treating microbial infection” (GENERAL BIOLOGICALS CORPORATION, priority 2015, dated 2019)
# No end group written: not given here.
# How the values were obtained:
# [1] = tested on: Candida albicans strain SC5314; test: Fungal suppression at various concentrations and reaction times, colony count; type: cell-based; conditions: 37° C., 12.5 mM NaOAc
# Procedure: To examine the activity of P-113 for killing fungus, fungal suppression assays were carried out at various concentrations or reaction times. Candida albicans strain SC5314 (wild type, WT) was cultivated in the Yeast extract Peptone Dextrose medium (YPD medium) at 30° C. overnight, transferred to 5 ml of fresh YPD culture broth, and then cultivated again for another 5 hours. After fungi were collected by centrifugation, the fungi were washed with 12.5 mM sodium acetate (NaOAc) twice, redissolved in each well of a 96-well plate with 12.5 mM NaOAc (1.5×10^6 cells in 0.1 ml of 12.5 mM NaOAc). Then, the fungi were treated with different concentrations of P-113 for different reaction times at 37° C. Around […] of Phosphate-buffered saline (PBS) was added into each well, took 25 μl of liquid fungi suspension out and inoculated on a solid YPD medium, after being cultivated at 30° C. for 24 hours, the number of colonies were counted.
# [2] = tested on: Wild type (WT) Candida albicans; test: Salt and pH tolerance of candidacidal activity; type: cell-based
# Procedure: Wild type (WT) Candida albicans was cultivated in a YPD medium at 30° C. overnight and then transferred to 5 ml of fresh YPD culture broth, cultivated subsequently for another 5 hours. After the fungi were collected by centrifugation, washed with 12.5 mM sodium acetate twice, redissolved with 12.5 mM NaOAc to yield a fungal concentration of 1.5×10^6 cells/ml. Fifty microliters of liquid fungal suspension was taken out to mix with 50 μl of sequentially diluted antimicrobial peptides and placed in different wells of a 96-well plate allowing to react for 1 hour at 37° C. (as shown in FIG. 4(A). Then, 50 μl of liquid fungal mixture was taken out and 450 μl PBS was added to terminate the reaction. Finally, 25 μl was taken out and inoculated on a solid YPD medium.
# [3] = tested on: C. dubliniensis; type: cell-based
# Procedure: (§1) The antimicrobial activities against clinical isolates and drug-resistant strains of P-113 and its derived peptides were examined. The present invention evaluated the effect of P-113 on 15 clinical isolates of fungi belonging to the genus Candida (see Table 1). Clinical isolates were cultivated overnight at 30° C. under shaking in a YPD cultural broth (1% yeast extract, 2% peptone and 2% glucose), cells were centrifuged and washed with YPD, then cultivated again in a YPD culture broth allowing to grow for 5 hours (initial optical density at 600 nm [OD600]˜0.5). Cells were washed with PBS and then collected by centrifugation, redissolved in a culture broth (modified RPMI 1640 medium, LYM), the cell concentration was adjusted to ˜0.1 [OD600]/ml and then treated with P-113. After the mixed solution was cultivated under shaking at 37° C. and 5% CO2 for 24 hours, absorbance measurement (OD value) was performed to determine the minimum inhibitory concentration (MIC).
# [4] = tested on: C. parapsilosis; type: cell-based
# Procedure: as §1
# [5] = tested on: SC5314 strain of Candida albicans; test: Effect of cell wall disrupting agents on peptide activity, CFU; type: cell-based; conditions: Proteinase K 1 mg/ml, 30 min
# Procedure: The SC5314 strain of Candida albicans (wild type or WT) were grown overnight in YPD broth at 30° C. The overnight culture was then subcultured into fresh YPD medium and grown for 5 h. Cells were treated with Proteinase K (1 mg/ml) for 30 min or Zymolyase (5 mg/ml) for 1 h at 30° C., followed by reacting with different concentrations of the peptides for 1 h, respectively. After that, samples were serially diluted in phosphate-buffered saline (PBS) and 15 μl of each diluent was spotted onto YPD agar plates. Colony-forming units were counted after incubation at 30° C. for 24 h. The data were represented as the mean values±SD of three independent experiments.
# [6] = Circular dichroism secondary structure in 85% TFE, BeStSel analysis; type: physicochemical; conditions: CD analyzed by BeStSel
# Procedure: The present invention utilized a Circular Dichroism Spectrometer (AVIV Company) to observe the secondary structure of the antimicrobial peptides. Circular dichoism spectra of P-113 and its derivatives were recorded over the wavelength range of 195-260 nm with readings every 1 nm by using a quartz cuvette having 1 mm optical path length. Ellipticities were represented as mean residue molar ellipticity (MRE). P-113, P-113Du and P-113Tri were dissolved in 85% trifluoroethanol (TFE) solution.
# [7] = tested on: SC5314 strain of Candida albicans; test: Intracellular ROS assay (DHE, MitoSOX Red, flow cytometry); type: cell-based; conditions: 0.25 μM, 1 h, 37° C.
# Procedure: The SC5314 strain of Candida albicans (wild type or WT) were grown overnight in YPD broth at 30° C. The overnight culture was then subcultured into fresh YPD medium and grown for 5 h. Cells were harvested by centrifugation, washed twice with 12.5 mM sodium acetate (NaOAc) and resuspended in 12.5 mM NaOAc to a concentration of 1*10^7 cells/ml. The cells were treated with various AMPs (0.25 μM) for 1 h at 37° C. After treatment, cells were washed twice with 12.5 mM NaOAc. Dihydroethidium (DHE) is a superoxide indicator, and MitoSOX Red (MitoSOX) was introduced for selective detection of superoxide in the mitochondria of live cells. The intracellular ROS was measured using DHE (20 μM) staining for 30 min and MitoSOX Red (5 μM) for 60 min in PBS. Fluorescent detection was performed by flow cytometry.
# [8] = tested on: Candida albicans strain SC5314 biofilms; test: Biofilm cell viability, XTT reduction assay; type: cell-based; conditions: biofilm cells, 37° C., 1 hr
# Procedure: Candida albicans strain SC5314 was cultivated in a YPD medium overnight and then transferred to a fresh YPD culture broth, diluted until the concentration was 3×10^5 cells/ml. 100 μl of liquid fungal suspension was placed in a 96-well plate for cultivation at 37° C. for 24 hours, formed biofilms were washed with sodium acetate (12.5 mM). Then, sequence-diluted antimicrobial peptides P-113, P-113Du and P-113Tri (0-200 μM) were added, reacted at 37° C. for 1 hour, washed with PBS twice. The cellular activity of the biofilms was determined by using XTT (2,3-bis(2-methoxy-4-nitro-5-sulfophenyl)-2H-tetrazolium-5-carboxanilide) reduction assays to analyze the cell survival rate. To perform this reaction, XTT (0.5 mg/ml) and Menadione (0.5 μM) were dissolved in PBS and then added into a 96-well plate formed by biofilms, reacted at 30° C. for 30 minutes, the optical density was measured at wavelength 490 nm (OD490). The cellular activity of the biofilms was represented as a percentage.
# [9] = tested on: och1Δ mutant strain; test: Susceptibility of och1Δ mutant, CFU; type: cell-based, Candida albicans; conditions: och1Δ versus SN250, 1 h
# Procedure: The SN250 and och1Δ mutant strains were grown overnight in YPD broth at 30° C. The overnight culture was then subcultured into fresh YPD medium and grown for 5 h. Cells were treated with different concentration of peptides for 1 h. After treatment, samples were serially diluted in PBS and 15 μl of each diluent was spotted onto YPD agar plates. Colony-forming units were counted after 24 h incubation at 30° C. The data were represented as the mean values±SD of three independent experiments.
substance,measurement,setting,value
"AKRHHGYKRKFH-NH2 [P-113, AKRHHGYKRKFH-NH2]","anti-Candida activity, dependence on concentration and time",[1],time-dependent and dose-dependent
same,candidacidal activity,"[2]; 12.5 mM sodium acetate, 37° C., 1 hour",exhibited candidacidal activity
same,candidacidal activity,[2]; 62.25 and 93.75 mM salt,reduced activity
same,candidacidal activity,[2]; pH 4.5,activity was lost
same,candidacidal activity,[2]; pH 6 and 8,exhibited candidacidal activity
same,Minimum Inhibitory Concentration,[3],6.25 µg/mL
same,Minimum Inhibitory Concentration,[4],0.78 µg/mL
same,candidacidal activity after proteinase K treatment of cells,[5],failed to kill C. albicans
same,content of the α-helical secondary structure,[6],2.9%
same,intracellular ROS formation,[7],induced intracellular ROS formation
same,concentration causing 50% reduction in the metabolic activity (50% RMA),[8],> 300 µg/mL
same,susceptibility of och1Δ mutant to peptide,[9],resistant
